Results from the supplement of paper PMC9262897, “Low-cost anti-mycobacterial drug discovery using engineered E. coli” (Nature Communications, 2022).

What was measured:
[1] = tested on: E. coli TESEC Mtb Alr; test: growth (OD600 after 10 h, mean); higher = more growth;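 further: E. coli lacking its native Alr, complemented by codon-optimized Mtb Alr under a feedback-controlled arabinose-inducible plasmid circuit, grown in defined medium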
Description: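 TESEC Mtb Alr E. coli grown in a two-dimensional dilution series of drug (µM) and arabinose (12 to 1e8 nM). Growth is read as OD600 after 10 h; values are means of 3 biological replicates.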

[2] = tested on: ∆tolC ∆entC; test: growth (OD600 after 24 h); higher = more growth
Description: (§1)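 E. coli BW25113 ΔaraC (Efflux+) or efflux-pump deletion strains (ΔtolC ΔentC, ΔemrE, ΔmdtI, ΔyeeO, ΔmdtK, ΔmdtM) diluted 1:100 in M9-based medium with a drug dilution series. Growth is read as OD600 after 24 h; 3 biological replicates.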

[3] = tested on: ∆yeeO; test: growth (OD600 after 24 h); higher = more growth
Description: as §1

[4] = tested on: ∆emrE; test: growth (OD600 after 24 h); higher = more growth
Description: as §1

[5] = tested on: Efflux+; test: growth (OD600 after 24 h); higher = more growth
Description: as §1

[6] = tested on: ∆mdtK; test: growth (OD600 after 24 h); higher = more growth
Description: as §1

[7] = tested on: ∆mdtM; test: growth (OD600 after 24 h); higher = more growth
Description: as §1

[8] = tested on: ∆mdtI; test: growth (OD600 after 24 h); higher = more growth
Description: as §1

CCOC(=O)[C@H](CCc1ccccc1)N[C@H]1CCc2ccccc2N(CC(=O)O)C1=O [Benazepril]
growth, [1]
Conditions | drug 15.62 µM | drug 31.25 µM | drug 62.5 µM | drug 125 µM | drug 250 µM
arabinose 12 nM | 0.354 | 0.343 | 0.321 | 0.279 | –
arabinose 24 nM | 0.338 | 0.339 | 0.326 | 0.285 | –
arabinose 48 nM | 0.334 | 0.332 | 0.33 | 0.275 | –
arabinose 95 nM | 0.343 | 0.334 | 0.309 | 0.279 | –
arabinose 191 nM | 0.341 | 0.34 | 0.308 | 0.275 | –
arabinose 381 nM | 0.338 | 0.325 | 0.309 | 0.274 | –
arabinose 763 nM | 0.337 | 0.322 | 0.304 | 0.278 | –
arabinose 1526 nM | 0.333 | 0.322 | 0.305 | 0.275 | 0.185
arabinose 3052 nM | 0.338 | 0.326 | 0.308 | 0.279 | 0.183
arabinose 6104 nM | 0.337 | 0.334 | 0.303 | 0.277 | 0.187
arabinose 12207 nM | 0.353 | 0.332 | 0.312 | 0.288 | 0.186
arabinose 24414 nM | 0.352 | 0.348 | 0.309 | 0.297 | –
arabinose 48828 nM | 0.367 | 0.393 | 0.396 | 0.359 | –
arabinose 97656 nM | 0.451 | 0.462 | 0.394 | 0.376 | –
arabinose 195312 nM | 0.429 | 0.42 | 0.387 | 0.327 | –
arabinose 390625 nM | 0.344 | 0.35 | 0.346 | 0.289 | –
arabinose 781250 nM | 0.311 | 0.307 | 0.306 | 0.281 | –
arabinose 1562500 nM | 0.295 | 0.287 | 0.286 | 0.269 | –
arabinose 3125000 nM | 0.274 | 0.267 | 0.268 | 0.255 | –
arabinose 6250000 nM | 0.267 | 0.273 | 0.273 | 0.256 | –
arabinose 12500000 nM | 0.263 | 0.266 | 0.256 | 0.256 | –
arabinose 25000000 nM | 0.259 | 0.258 | 0.252 | 0.244 | –
arabinose 50000000 nM | 0.246 | 0.245 | 0.244 | 0.243 | –
arabinose 100000000 nM | 0.239 | 0.231 | 0.23 | 0.227 | –

growth
Conditions | [2] | [3] | [4] | [5] | [6] | [7] | [8]
drug 62.5 µM | 0.756 | 0.887 | 1.18 | 1.02 | 0.937 | 0.822 | 0.992
drug 125 µM | 0.791 | 0.894 | 1.16 | 0.974 | 1.04 | 0.832 | 0.978
drug 250 µM | 0.8136 | 0.895 | 1.09 | 0.962 | 1 | 0.807 | 0.979
drug 500 µM | 0.8286 | 0.901 | 1.08 | 0.969 | 1.01 | 0.827 | 0.983
drug 1000 µM | 0.0672 | 0.91 | 1.065 | 0.977 | 0.974 | 0.835 | 1
drug 2000 µM | 0.0535 | 0.882 | 1.14 | 1 | 0.856 | 0.833 | 1.009
